These results are taken from patent US20180369186A1, “METHOD FOR MODULATING AUTOPHAGY AND APPLICATIONS THEREOF” (JAWAHARLAL NEHRU CENTRE FOR ADVANCED SCIENTIFIC RESEARCH, priority 2015, published 2018).

Each structure is given as a SMILES string. Where “and” joins values, the source holds several entries; their conditions need not be identical. Identical values can stand only once.

Data set [1] deals with α-synuclein toxicity. Briefly: S. cerevisiae α-synuclein toxicity model, growth assay. The class given is cell-based. Particulars: WT α-synuclein-EGFP strain; 50 μM. As to the method: To screen small molecule library LOPAC1280 in S. cerevisiae SNCA toxicity model, working plates containing 50 μM drugs in 1.5% DMSO (190 compounds/plate) are prepared in a 384 well format. WT SNCA-GFP with or without small molecules and untreated WT GFP are grown under optimized conditions (80 μl, 30° C. and 420 rpm) for 36 h in a plate reader (Varioskan Flash, Thermo Scientific) in duplicates with automatic absorbance (A600) recording every 20 min. Growth curves of untreated WT GFP and WT SNCA-GFP strains are plotted and mid to late exponential phase time point of untreated WT GFP strain is chosen as reference for data analysis. Its corresponding time point of untreated and drug treated WT SNCA-GFP strains are plotted separately in a box plot. Small molecules that rescued the growth lag by ≥3 SD units of untreated WT SNCA-GFP strain are considered as ‘Hits’.
Growth assays: In a 384 well plate, appropriate yeast strains are seeded (A600˜0.07) with and without drugs and incubated (80 μl, 30° C. and 420 rpm) in a multiplate reader (Varioskan Flash, Thermo Scientific) for 48 h with automatic absorbance (A600) recording every 20 min. Growth curves are plotted and analyzed using GraphPad Prism.
Induction of α-synuclein-EGFP aggregates: To induce α-synuclein-EGFP aggregates, the corresponding strains are inoculated in SD-Ura medium, Secondary culture is inoculated from primary inoculum and incubated till A600 reaches 0.8/ml. Cells are washed twice with sterile water and aggregates are induced by adding SG-Ura for 12-16 h.
To screen small molecule library LOPAC^1280 in S. cerevisiae α-synuclein toxicity model, working plates containing 50 μM drugs (small molecule) in 1.5% DMSO (190 compounds/plate) are prepared in a 384 well format. WT α-synuclein-EGFP with and without small molecules and untreated WT EGFP are grown under optimized conditions (80 μl, 30° C. and 420 rpm) for 36 h in a plate reader (Varioskan Flash, Thermo Scientific) in duplicates with automatic absorbance (A600) recording every 20 min.
Growth curves of untreated WT EGFP and WI α-synuclein-EGFP strains are plotted and mid to late exponential phase time point of untreated WT EGFP strain is chosen as reference for data analysis. Its corresponding time point of untreated and drug treated WT α-synuclein-EGFP strains are plotted separately in a box plot.
Appropriate yeast strains are seeded (A600 ˜0.07) with or without drugs in a 384-well plate and incubated (420 rpm, 30° C. and 80 μl) in a multiplate reader (Varioskan Flash, Thermo Scientific) for 48 h that records absorbance (A600) automatically for every 20 min. Growth curves are plotted using GraphPad Prism.

The test system of data set [2] is TH+ dopaminergic neurons in SNpc. As to the kind of experiment: MPTP mouse model: TH+ dopaminergic neurons in SNpc (stereology, densitometry, volume). The class given is in vivo, mice. As to the method:
As described by Vernice Jackson-Lewis & Serge Przedborski (2007), 23.4 mg/kg MPTP.HCl (equivalent to 20 mg/kg free base) in 10 ml/kg body wt. of saline is administered intraperitoneally (i.p.) for 4 times at 2 h intervals.
All mice are sacrificed 9 days post MPTP administration and brains are processed for immunohistochemistry.
Mice are anaesthetized using Halothane BP (Piramal Healthcare) inhalation and perfused intracardially with normal saline followed by 4% PFA in 0.1 M phosphate buffer, pH 7.4. Brains are removed quickly and post-fixed with 4% PFA for 24 h-48 h at 4° C. Following cryoprotection in 15% and 30% sucrose, 40 μm thick coronal cryosections of midbrain are collected serially on gelatinized slides. Immunoperoxidase labelling protocol as identical to that reported. Briefly, endogenous peroxidase is quenched using H2O2 (0.1%) in methanol (70%), followed by blocking of non-specific staining by buffered solution (3%) of bovine serum albumin for 4 h at room temperature. Sections are incubated with TH primary antibody (1:500) followed by biotin conjugated secondary antibody (1:200 dilution, Vector Laboratories). Tertiary labelling is performed with avidin-biotin complex solution (1:100, Vector Laboratories). Staining is visualized using 3′-3′-diaminobenzidine (0.05%) as a chromogen in a solution of 0.1M acetate imidazole buffer (pH 7.4) and H2O2 (0.1%). Negative controls are processed identically, except that primary antibody is replaced with dilution buffer.
As described by Y. Fu et al., SNpcis delineated using the 4× objective of Olympus BX61 Microscope (Olympus) equipped with Stereo Investigator Software Version 7.2 (MicroBrightField). Stereological quantification is performed using optical fractionator probe with slight modifications(P. A. Alladi et al.). Briefly, every sixth midbrain section containing SNpc is chosen and TH^+ cells are counted under 100× objective, with a regular grid interval of 22500 μm^2 (x=150 μm, y=150 μm) and counting frame with an area of 3600 μm^2 (x=60 μm, y=60 μm) (FIG. 10B). Mounted thickness is determined at every fifth site, averaging to 25 μm. Guard zone 4 μm is applied on either side, thus providing 17 μm of z-dimension within optical dissector. The quantification is performed starting with first anterior appearance of TH^+ neurons in SNpc to caudal most part. The SNpc volume is determined by planimetry (FIG. 10C) and total numbers of neurons according to mean measured thickness are noted.
High magnification images of TH stained nigral DAergic neurons, captured for offline assessment of Tyrosine Hydroxylase (TH) enzyme expression levels=used. Expression intensity is measured using a Windows based image analysis system (Q Win V3, Leica Systems). Cumulative mean is derived from the values obtained from sampling, approximately 200 DAergic neurons per animal. Intensity output is measured on a grey scale of 0-255, where 0 equals intense staining and 255 means absence of staining.
The mice are distributed into three groups' viz., vehicle, MPTP and MPTP+XCT 790 injected respectively. The vehicle group receives intraperitoneal injections of dimethyl sulfoxide (DMSO) injections i.e. the solvent. The MPTP group receives 23.4 mg/kg MPTP.HCl in 10 ml/kg body wt. of saline is administered intraperitoneally for 4 times at 2 h interval. The MPTP+XCT 790 group mice are injected with 5 mg/kg body wt, of XCT 790 dissolved in DMSO, alongside the first MPTP injection. […]

The test system of data set [3] is DAergic neurons in SNpc. As to the kind of experiment: MPTP mouse model: LC3 and A11 puncta in DAergic neurons of SNpc. The class given is in vivo. Particulars: MPTP treated cohort. As to the method:
The sequential immunolabeling procedure is used to co-label the TH and LC3 and/or A11. First, the midbrain sections are equilibrated with 0.1 M PBS (pH 7.4) for 10 min and then incubated with buffered bovine serum albumin (3%) for 4 h to block non-specific epitopes. Then, the sections are incubated in rabbit anti-LC3 antibody (1:1000) and/or anti-oligomer antibody (A11, 1:1000) for 72 h at 4° C. After subsequent washes, the sections are incubated in corresponding fluorescent secondary antibody (1:200) at 4° C., overnight.
Co-labeling with TH is performed on the same sections using rabbit anti-TH antibody (1:500), followed by secondary labeling. PBST (0.01 M, pH 7.4) is used as both working and washing buffer. Sections are then mounted using Vectashield hardset mounting medium.

Data set [4] concerns lace plant (Aponogeton madagascariensis) cells. As to the kind of experiment: Lace plant leaf MDC staining of punctate structures. The class given is cell-based. The note with it: 2 hours; 5 μM wortmannin, 50 μM Bay11, 1 μM concanamycin A, rapamycin, 50 μM ZPCK; control 0.99±0.12. As to the method:
Axenic lace plant cultures are grown in magenta boxes and prepared according to Gunawardena et al. Leaves in the window stage are removed from the corm and rinsed thoroughly with distilled water prior to being sectioned into 2 mm^2 pieces. For starvation treatments, window stage leaves are removed from the plant, placed in distilled water and kept in the dark overnight.
Leaf sections are stained with monodansylcadaverine (MDC; 300 μM) (Sigma, D4008) and simultaneously treated with autophagy modulators for 2 hours in the dark. (1 hour vacuum infiltration at 15 psi). Treatment times, along with stain and modulator applications are optimized using concentration gradients followed by microscopy. The optimized concentrations are 5 μM rapamycin (Enzo Life Sciences (BML A275-0005), 5 μM wortmannin (Santa Cruz Biotechnology, sc-3505), 1 μM concanamycin A (Santa Cruz Biotechnology, sc-202111), 50 μM Bay 11 (Sigma, B5556) and 50 μM ZPCK (Sigma, 860794).
Tissue sections are then rinsed and mounted in distilled water prior to being scanned using a Nikon Eclipse Ti confocal microscope (Nikon 40X/1.30, Plan Fluor, 405 nm excitation and 450/30 nm emission). Areoles in the early phases of PCD are scanned to avoid cellular debris. The mean number of puncta are quantified for each treatment group with a minimum of four independent experiments using NIS Elements Advanced Research software. Additionally, starvation treatment leaves are also exposed to 5 μM, wortmannin, 50 μM Bay11 and 50 μM ZPCK treatments and then qualitatively assessed via confocal microscopy.

Data set [5] deals with Atg8. Briefly: Atg8 immunolocalization in lace plant. The class given is cell-based, Aponogeton madagascariensis. The note with it: two hours; same modulator concentrations as MDC; control 0.90±0.08. As to the method: Whole leaves are treated for two hours prior to fixation in 100% Methanol at 37° C. and then hydrophilized to 20% methanol by adding distilled water at 60° C. every two minutes for 32 minutes. Samples are then sectioned and placed on a multiwall slide and allowed to air dry for 10 minutes to facilitate membrane permeabilization. Blocking is done for 30 minutes at 37° C. with 4% low fat milk powder in 1× microtubule stabilization buffer MTSB (Modified 2× MTSB stock solution: 15 g PIPES, 1.9 g EDTA, 1.22 g MgSO4*7H2O and 2.5 g KOH—pH 7.0). Primary antibody incubation for anti-rabbit ATG8 (Agrisera, AS14 2769) is done at a 1:1000 dilution in 1× MTSB for 30 minutes at 37° C. Samples are then washed for 5 minutes, 3 times with 1× MTSB. Secondary antibody incubation with Goat anti-rabbit Dylight 488 (Agrisera AS09 633) at a 1:2000 dilution in 1× MTSB is done for 30 minutes at 37° C. and then samples are rinsed as above. Tissues are mounted in Mowiol 4-88 solution (Sigma, 81381) and scanned via confocal microscopy as mentioned above. The mean number of puncta per cell is determined using maximum intensity projections (MIPs) for each replicate. The total number of cells within a field of view are counted manually and the number of puncta are counted automatically using ImageJ.

As for `N#C/C(=C\c1ccc(-c2cc(Cl)ccc2Cl)o1)C(=O)Nc1cccc2ncccc12` [Agk2, reference compound], in data set [1], the “rescue of growth lag due to α-synuclein toxicity” value is “rescue growth lag”.
In the case of `CN1CC=C(c2ccccc2)CC1` [MPTP, methyl-4-phenyl-1,2,3,6-tetrahydropyridine, reference compound], the “reduction in number and health of DA neurons, compared to control” value in data set [2] (MPTP 23 mg/kg) is recorded as approximately 3 fold. Besides, in data set [2] (MPTP 23.4 mg/kg, 4 times), the “dopaminergic neurons in SNpc lost, MPTP vs Vehicle” value is on record as approximately 68%. Moreover, the “increase of A11 puncta / aggregates, placebo/vehicle vs MPTP” value in data set [3] is ~7 fold and ~6.5 fold.
For the compound `C/C=C/[C@H]1O[C@@](O)([C@@H](C)[C@H](O)[C@H](C)[C@H]2OC(=O)/C(OC)=C/C(C)=C/[C@@H](C)[C@@H](O)[C@@H](CC)[C@@H](O)[C@H](C)C/C(C)=C/C=C/[C@@H]2OC)C[C@@H](O[C@H]2C[C@@H](O)[C@H](OC(N)=O)[C@@H](C)O2)[C@@H]1C` [concanamycin A], the “mean number of punctate structures per cell (MDC)” value (from here on “mean number … per cell (MDC)”) in data set [4] is 1.91±0.13. The “mean number of Atg8 puncta per cell” value in data set [5] was 2.43±0.29.
Take `CO[C@H]1C[C@@H]2CC[C@@H](C)[C@@](O)(O2)C(=O)C(=O)N2CCCC[C@H]2C(=O)O[C@H]([C@H](C)C[C@@H]2CC[C@@H](O)[C@H](OC)C2)CC(=O)[C@H](C)/C=C(\C)[C@@H](O)[C@@H](OC)C(=O)[C@H](C)C[C@H](C)/C=C/C=C/C=C/1C` [rapamycin]: in data set [4], the “mean number … per cell (MDC)” value amounted to 2.31±0.25. In addition, the “mean number of Atg8 puncta per cell” value in data set [5] came out at 3.52±0.09.
On to `COC[C@H]1OC(=O)c2coc3c2[C@@]1(C)C1=C(C3=O)[C@@H]2CCC(=O)[C@@]2(C)C[C@H]1OC(C)=O` [wortmannin], for which the “mean number … per cell (MDC)” value in data set [4] was determined as 0.26±0.03. For the same compound, the “mean number of Atg8 puncta per cell” value in data set [5] amounted to 0.27±0.025.
